Our source for the viability values is publication PMC11995724, “Antibiotic target discovery by integrated phenotypic and activity-based profiling of electrophilic fragments” (Cell chemical biology, 2025).

A short description of this series: in vitro. The following applies: human, hek293t cells.
Take `O=C(CCl)N(CCCO)C1CCCc2ccccc21` (centres unmarked) [7-J14, 2-chloro-N-(3-hydroxypropyl)-N-(1,2,3,4-tetrahydronaphthalen-1-yl)acetamide]: the viability (in general, a read-out of living cells in per cent, often relative to untreated cells) at 48 h, 25 µM was determined as 0.693%.
As to `COc1ccc2nnc(CNC(=O)C(C)Cl)n2n1` (centres unmarked) [7-J15, 2-chloro-N-({6-methoxy-[1,2,4]triazolo[4,3-b]pyridazin-3-yl}methyl)propanamide], the viability at 48 h, 25 µM turned out to be 90.2%.
Consider `CN(C(=O)CCl)C(c1ccc(Cl)cc1)C(F)(F)F` (centres unmarked) [7-J16, 2-chloro-N-[1-(4-chlorophenyl)-2,2,2-trifluoroethyl]-N-methylacetamide], for which the viability at 48 h, 25 µM was 0.718%.
On to `Cc1cc2ncn(CC(NC(=O)C(C)Cl)C3CC3)c2cc1C` (centres unmarked) [7-J17, 2-chloro-N-[1-cyclopropyl-2-(5,6-dimethyl-1H-1,3-benzodiazol-1-yl)ethyl]propanamide], for which the viability at 48 h, 25 µM was determined as 84.7%.
`O=C(CCl)NCCc1cccc2c1Oc1ccccc1O2` [7-J18, 2-chloro-N-[2-(oxanthren-1-yl)ethyl]acetamide]: the viability at 48 h, 25 µM was 0.958%.
Consider `CC(Cl)C(=O)NCc1cc(C(F)(F)F)cs1` (centres unmarked) [7-J19, 2-chloro-N-{[4-(trifluoromethyl)thiophen-2-yl]methyl}propanamide], for which the viability at 48 h, 25 µM turned out to be 97.1%.
On to `O=C(CCl)N(CC1=CCCOC1)Cc1ccccc1` [7-J20, N-benzyl-2-chloro-N-[(5,6-dihydro-2H-pyran-3-yl)methyl]acetamide], for which the viability at 48 h, 25 µM amounted to 0.586%.
As to `O=C(CCl)NCc1cc(O)ccc1Cl` [7-J21, 2-chloro-N-[(2-chloro-5-hydroxyphenyl)methyl]acetamide], the viability at 48 h, 25 µM came to 0.249%.
On to `CC(C)C(NC(=O)CCl)c1ccc(Cl)cc1F` (centres unmarked) [7-J22, 2-chloro-N-[1-(4-chloro-2-fluorophenyl)-2-methylpropyl]acetamide], for which the viability at 48 h, 25 µM was 0.584%.
`CC(Cl)C(=O)NCc1ncn(Cc2cccc(F)c2)n1` (centres unmarked) [7-K03, 2-chloro-N-({1-[(3-fluorophenyl)methyl]-1H-1,2,4-triazol-3-yl}methyl)propanamide]: the viability at 48 h, 25 µM came to 111%.
The value for `CC(Cl)C(=O)N1CCC(n2ncc3ccccc32)C1` (centres unmarked) [7-K04, 2-chloro-1-[3-(1H-indazol-1-yl)pyrrolidin-1-yl]propan-1-one] was 92.4%; that for `CC(Cl)C(=O)NCc1csc(-c2ccco2)n1` (centres unmarked) [7-K05, 2-chloro-N-{[2-(furan-2-yl)-1,3-thiazol-4-yl]methyl}propanamide] was 90.6%.
The value for `CC(Cl)C(=O)N1CCN(C(=O)C(F)(F)F)C2(CCCCC2)C1` (centres unmarked) [7-K06, 2-chloro-1-[1-(2,2,2-trifluoroacetyl)-1,4-diazaspiro[5.5]undecan-4-yl]propan-1-one] was 74%; that for `CC(Cl)C(=O)N1CCc2sccc2C1c1cccs1` (centres unmarked) [7-K07, 2-chloro-1-[4-(thiophen-2-yl)-4H,5H,6H,7H-thieno[3,2-c]pyridin-5-yl]propan-1-one] was 87.1%; that for `CC(Cl)C(=O)NC1CCN(c2nnnn2C)CC1` (centres unmarked) [7-K08, 2-chloro-N-[1-(1-methyl-1H-1,2,3,4-tetrazol-5-yl)piperidin-4-yl]propanamide] was 82.1%.
On to `CC(Cl)C(=O)N1Cc2cnn(C)c2C1` (centres unmarked) [7-K09, 2-chloro-1-{1-methyl-1H,4H,5H,6H-pyrrolo[3,4-c]pyrazol-5-yl}propan-1-one], for which the viability at 48 h, 25 µM is 87%.
Regarding `CC(Cl)C(=O)NC1CCc2nc(-c3cc(F)ccc3F)cn2C1` (centres unmarked) [7-K10, 2-chloro-N-[2-(2,5-difluorophenyl)-5H,6H,7H,8H-imidazo[1,2-a]pyridin-6-yl]propanamide], the viability at 48 h, 25 µM was 77.5%.
Then `CC(Cl)C(=O)N1CCN(C2=NS(=O)(=O)c3ccccc32)CC1` (centres unmarked) [7-K11, 3-[4-(2-chloropropanoyl)piperazin-1-yl]-1lambda6,2-benzothiazole-1,1-dione], with 94.9%.
On to `CC(Cl)C(=O)N1CCC(c2nc(C3CC3)no2)(C(F)(F)F)C1` (centres unmarked) [7-K12, 2-chloro-1-[3-(3-cyclopropyl-1,2,4-oxadiazol-5-yl)-3-(trifluoromethyl)pyrrolidin-1-yl]propan-1-one], for which the viability at 48 h, 25 µM is 83.5%.
With `CC(Cl)C(=O)NCC1CCCCN1C(=O)C(F)(F)F` (centres unmarked) [7-K13, 2-chloro-N-{[1-(2,2,2-trifluoroacetyl)piperidin-2-yl]methyl}propanamide], the viability at 48 h, 25 µM is 83.8%.
Take `CC(Cl)C(=O)NC1(C(=O)Nc2ccccc2)CC1` (centres unmarked) [7-K14, 1-(2-chloropropanamido)-N-phenylcyclopropane-1-carboxamide]: the viability at 48 h, 25 µM was 52%.
The value for `CC(Cl)C(=O)NCc1ccccc1S(=O)(=O)N1CCOCC1` (centres unmarked) [7-K15, 2-chloro-N-{[2-(morpholine-4-sulfonyl)phenyl]methyl}propanamide] was 86%; that for `CC(Cl)C(=O)N(C)C[C@@H]1C[C@H](F)CN1c1ccnc(N(C)C)n1` (stereo partly drawn) [7-K16, 2-chloro-N-{[(2S,4S)-1-[2-(dimethylamino)pyrimidin-4-yl]-4-fluoropyrrolidin-2-yl]methyl}-N-methylpropanamide] was 79.5%; that for `CC(Cl)C(=O)N1CCn2c(nn(CC(=O)N(C)C)c2=O)C1` (centres unmarked) [7-K17, 2-[7-(2-chloropropanoyl)-3-oxo-2H,3H,5H,6H,7H,8H-[1,2,4]triazolo[4,3-a]pyrazin-2-yl]-N,N-dimethylacetamide] was 83.1%.
Regarding `CC(Cl)C(=O)NCc1nnc(-c2ccncc2F)s1` (centres unmarked) [7-K18, 2-chloro-N-{[5-(3-fluoropyridin-4-yl)-1,3,4-thiadiazol-2-yl]methyl}propanamide], the viability at 48 h, 25 µM is 78.4%.
The value for `CC(Cl)C(=O)NC1CCCN(c2cnn(C)c2)C1` (centres unmarked) [7-K19, 2-chloro-N-[1-(1-methyl-1H-pyrazol-4-yl)piperidin-3-yl]propanamide] was 75.7%; that for `CC(Cl)C(=O)NC1(C(=O)N(C)C)CC(F)(F)C1` (centres unmarked) [7-K20, 1-(2-chloropropanamido)-3,3-difluoro-N,N-dimethylcyclobutane-1-carboxamide] was 83.7%.
`CC(Cl)C(=O)NC(c1cc(Cl)ccc1Cl)C1CCOC1` (centres unmarked) [7-K21, 2-chloro-N-[(2,5-dichlorophenyl)(oxolan-3-yl)methyl]propanamide]: the viability at 48 h, 25 µM was 87.9%.
As for `CC(Cl)C(=O)N1CCN(c2nc3ccccc3o2)C(C)C1` (centres unmarked) [7-K22, 1-[4-(1,3-benzoxazol-2-yl)-3-methylpiperazin-1-yl]-2-chloropropan-1-one], the viability at 48 h, 25 µM turned out to be 76.1%.
Consider `O=C(CCl)NC1CCN(C(=O)COc2ccccc2)C1` (centres unmarked) [7-L03, 2-chloro-N-[1-(2-phenoxyacetyl)pyrrolidin-3-yl]acetamide], for which the viability at 48 h, 25 µM is 0.757%.
Then `CN1c2ccccc2C(NC(=O)CCl)CS1(=O)=O` (centres unmarked) [7-L04, 2-chloro-N-(1-methyl-2,2-dioxo-3,4-dihydro-1H-2lambda6,1-benzothiazin-4-yl)acetamide], with 0.505%; and `CC(Cl)C(=O)NCCS(=O)(=O)Nc1ccccn1` (centres unmarked) [7-L05, 2-chloro-N-{2-[(pyridin-2-yl)sulfamoyl]ethyl}propanamide], with 103%.
In the case of `O=C(CCl)NCC1CCN(C(=O)c2ccccc2)CC1` [7-L06, N-[(1-benzoylpiperidin-4-yl)methyl]-2-chloroacetamide], the viability at 48 h, 25 µM was found to be 0.868%.
Take `CC(Cl)C(=O)N1CCC(NS(=O)(=O)c2cccs2)CC1` (centres unmarked) [7-L07, N-[1-(2-chloropropanoyl)piperidin-4-yl]thiophene-2-sulfonamide]: the viability at 48 h, 25 µM worked out at 99.7%.
As for `CN(CC(=O)NC1CCC(O)CC1)C(=O)CCl` (centres unmarked) [7-L08, 2-chloro-N-{[(4-hydroxycyclohexyl)carbamoyl]methyl}-N-methylacetamide], the viability at 48 h, 25 µM worked out at 0.707%.
For `CC(Cl)C(=O)NCCc1ccc[nH]1` (centres unmarked) [7-L09, 2-chloro-N-[2-(1H-pyrrol-2-yl)ethyl]propanamide], the viability at 48 h, 25 µM was determined as 91.9%.
Turning to `CCC(c1cc(Cl)cc(Cl)c1)N(C)C(=O)CCl` (centres unmarked) [7-L10, 2-chloro-N-[1-(3,5-dichlorophenyl)propyl]-N-methylacetamide], the viability at 48 h, 25 µM is 0.495%.
On to `CC(Cl)C(=O)N1CCCC1c1cccc2c1OCCO2` (centres unmarked) [7-L11, 2-chloro-1-[2-(2,3-dihydro-1,4-benzodioxin-5-yl)pyrrolidin-1-yl]propan-1-one], for which the viability at 48 h, 25 µM worked out at 89.6%.
As to `CC1CCCN1C(=O)CNC(=O)CCl` (centres unmarked) [7-L12, 2-chloro-N-[2-(2-methylpyrrolidin-1-yl)-2-oxoethyl]acetamide], the viability at 48 h, 25 µM stood at 83.6%.
The value for `CC(Cl)C(=O)N1CCC(C(=O)c2cccs2)CC1` (centres unmarked) [7-L13, 2-chloro-1-[4-(thiophene-2-carbonyl)piperidin-1-yl]propan-1-one] was 86.7%; that for `C[C@H](NC(=O)CCl)C(=O)N1CCCCC1` [7-L14, 2-chloro-N-[(2S)-1-oxo-1-(piperidin-1-yl)propan-2-yl]acetamide] was 70.1%.
With `CC(Cl)C(=O)N1CCCN(c2ccc(-c3ccccc3)nn2)CC1` (centres unmarked) [7-L15, 2-chloro-1-[4-(6-phenylpyridazin-3-yl)-1,4-diazepan-1-yl]propan-1-one], the viability at 48 h, 25 µM was 76.7%.
On to `O=C(CCl)NC1Cc2ccccc2N(C(=O)C(F)(F)F)C1` (centres unmarked) [7-L16, 2-chloro-N-[1-(2,2,2-trifluoroacetyl)-1,2,3,4-tetrahydroquinolin-3-yl]acetamide], for which the viability at 48 h, 25 µM is 0.649%.
On to `CC(Cl)C(=O)N(Cc1ccco1)C1CCN(C)CC1` (centres unmarked) [7-L17, 2-chloro-N-[(furan-2-yl)methyl]-N-(1-methylpiperidin-4-yl)propanamide], for which the viability at 48 h, 25 µM stood at 101%.
Turning to `COc1ccccc1[C@H]1C[C@H](NC(=O)CCl)C1` [7-L18, 2-chloro-N-[(1r,3r)-3-(2-methoxyphenyl)cyclobutyl]acetamide], the viability at 48 h, 25 µM stood at 0.928%.
For `CC(Cl)C(=O)NCc1nc(C2CC2)n[nH]1` (centres unmarked) [7-L19, 2-chloro-N-[(3-cyclopropyl-1H-1,2,4-triazol-5-yl)methyl]propanamide], the viability at 48 h, 25 µM turned out to be 91.3%.
`O=C(CCl)NCCc1ccn(C2CCCC2)n1` [7-L20, 2-chloro-N-[2-(1-cyclopentyl-1H-pyrazol-3-yl)ethyl]acetamide]: the viability at 48 h, 25 µM came out at 38.7%.
